Source: US20060159727A1, “Prevention of Systemic Microbial Infection” (priority 2005, published 2006)

Experiments:
salmonella = assay: Concentration of salmonella in organs of challenged chicks fed test material; type: in vivo; settings: chicks fed supplemented diet from hatch, sacrificed at 14 days
Procedure: Newly hatched chicks were fed a diet supplemented with the test materials, at 7 days of age, chicks were challenged 0.2 ml of a 2×10^9 salmonella culture. Chicks were sacrificed at 14 days of age (1 week after bacterial challenge), their organs dissected and cultured to determine bacterial counts.

[1] = system: Salmonella enteriditis phage type VIII (SePT8); assay: Susceptibility test: paper disk zone of inhibition on inoculated agar plate; type: cell-based; settings: paper disk impregnated with fixed concentration of test material, 2 days
Procedure: An agar plate was uniformly inoculated with salmonella and a paper disk impregnated with a fixed concentration of test material was placed on top of the agar surface. […] The bacteria used was Salmonella enteriditis phage type VIII (SePT8). The study was conducted for 2 days. A disk soaked in sterile water was used as control.

E. coli = settings: cited from earlier work

| Compound | concentration of salmonella in Liver (salmonella; challenged at 7 days with 0.2 ml of 2×10^9 culture, liver) [cfu] | concentration of salmonella in Ceca (salmonella; challenged at 7 days, ceca) [cfu] | concentration of salmonella in Colon (salmonella; challenged at 7 days, colon) [cfu] | concentration of salmonella in Duodenum (salmonella; challenged at 7 days, duodenum) [cfu] | concentration of salmonella in Spleen (salmonella; challenged at 7 days, spleen) [cfu] | Zone of Inhibition [1] [mm] | citral concentration in growth media that reduced the concentration of E. coli (E. coli) | citral concentration with bactericidal effect (E. coli; growth media, E. coli) [%] |
| --- | --- | --- | --- | --- | --- | --- | --- | --- |
| O=S(=O)([O-])[O-].[Cu+2] [Copper Sulfate] | 11 | 54 | 74 | 19 | 10 | 1.444 |  |  |
| CC(C)=CCCC(C)=CC=O [citral] |  |  |  |  |  |  | more than 0.01% | 0.08 |
| Gentamycin |  |  |  |  |  | 1.300 |  |  |
